# Test: in vivo test of prodrug hydrolysis to active compound
# Conditions: tested in vivo
compound,measurement,value
"C[C@@]12OC(c3ccc(Cl)cc3)O[C@@H]1[C@@H](CO)O[C@H]2c1coc2c(N)ncnc12 (stereo partly drawn) [Example 1, ((3aR,4R,6S,6aS)-6-(4-Aminofuro[3,2-d]pyrimidin-7-yl)-2-(4-chlorophenyl)-6a-methyltetrahydrofuro[3,4-d][1,3]dioxol-4-yl)methanol]",hydrolysis of prodrug in vivo,hydrolyzes in vivo to provide an active compound

# Reference: US8242085B2, “Tetrahydrofuro [3,4-D] dioxolane compounds for use in the treatment of viral infections and cancer” (BioCryst Pharmaceuticals, Inc., priority 2007, dated 2012)
